The values below are quoted from earlier work in patent US4291169A, “Substituted naphthoic acids” (American Cyanamid Company, priority 1980, dated 1981).

Data set [1] has as its system collagenase. The settings on record: Woolley et al. (1978); Seifter and Harper (1971).
A further data set concerns alkali burned rabbit. The settings on record: directly applied to corneal ulcerations.
Data set [2] concerns collagenase. The settings on record: Thromb. Res., 10(4), 605-11 (1977).
In a further data set the test system is corneal ulceration. The settings on record: human.
The conditions of data set [3]: compared with cysteine.

`O[C@H](CS)[C@H](O)CS` (relative stereo) [dithiothretol]: the “inhibition of connective tissue destruction / collagenase (in words)” value with collagenase [1] is listed as “collagenase inhibitors”.

With `c1cnc2c(c1)ccc1cccnc12` [1,10-phenanthroline], the “inhibition of connective tissue destruction / collagenase (in words)” value in the data set on collagenase [1] was “collagenase inhibitors”.

`O=C([O-])CN(CCN(CC(=O)[O-])CC(=O)[O-])CC(=O)[O-].[Ca+2].[Ca+2]` [Calcium ethylenediaminetetraacetate]: in the data set on alkali burned rabbit, the “frequency of ulceration (in words)” value is recorded as “reduce the frequency of ulceration”.

In the case of `Cc1ccc(C(=O)Nc2ccc(S(=O)(=O)O)c3cc(S(=O)(=O)O)cc(S(=O)(=O)O)c23)cc1NC(=O)c1cccc(NC(=O)Nc2cccc(C(=O)Nc3cc(C(=O)Nc4ccc(S(=O)(=O)O)c5cc(S(=O)(=O)O)cc(S(=O)(=O)O)c45)ccc3C)c2)c1` [Suramin], in the data set with collagenase [2], the “inhibition of the activity of collagenase (in words)” value is on record as “not inhibiting the action of collagenase”.

For `CC(=O)N[C@@H](CS)C(=O)O` [acetylcysteine], the “effect in treatment of acute and chronic corneal ulceration (in words)” value in the data set on corneal ulceration is “effective in the treatment of acute and chronic corneal ulceration”. The “stability (in words)” value in data set [3] was “greater stability”. Besides, the “frequency of ulceration (in words)” value in the data set on alkali burned rabbit is given as “reduce the frequency of ulceration”.

Regarding `N[C@@H](CS)C(=O)O` [cysteine], in the data set on collagenase [1], the “inhibition of connective tissue destruction / collagenase (in words)” value is reported as “collagenase inhibitors”. Also, the “effect in treatment of acute and chronic corneal ulceration (in words)” value in the data set with corneal ulceration was “effective in the treatment of acute and chronic corneal ulceration”.

Turning to `Cc1cc(-c2ccc(/N=N/c3c(S(=O)(=O)O)cc4cc(S(=O)(=O)O)cc(N)c4c3O)c(C)c2)ccc1/N=N/c1c(S(=O)(=O)O)cc2cc(S(=O)(=O)O)cc(N)c2c1O` [trypan blue], in the data set on collagenase [2], the “inhibition of the activity of collagenase (in words)” value was “inhibiting the activity of collagenase, or a proteinase contaminant in the collagenase preparation”.

With sodium auriothiomalate, in the data set on collagenase [1], the “inhibition of connective tissue destruction / collagenase (in words)” value is “collagenase inhibitors”.

As for “α2 -macroglobulin: Naturally occurring collagnase inhibitors include the serum components, α2 -macroglobulin and β1-anticollagenase”, the “inhibition of connective tissue destruction / collagenase (in words)” value in the data set with collagenase [1] was “Naturally occurring collagnase inhibitors”.
